Data published in patent US20130012548A1, “DEUTERIUM-SUBSTITUTED OMEGA-DIPHENYLUREA AND DERIVATIVES THEREOF AND PHARMACEUTICAL COMPOSITIONS COMPRISING THE COMPOUNDS” (SUZHOU ZELGEN BIOPHARMACEUTICAL CO., LTD., priority 2010, published 2013).

How the values were obtained:
[1] = Pharmacokinetic evaluation in rats; type: in vivo; conditions: Sprague-Dawley, rat, serum, male SD rats, single oral dose 3 mg/kg, in 30% PEG400; for CL/F: read-out: apparent clearance (converted); for AUC(0-inf): read-out: area under the curve (AUC0-∞); for half-life: read-out: half-life (T1/2) (converted)
Experimental: 8 male Sprague-Dawley rats (7-8 weeks old and body weight about 210 g) were divided into two groups, 4 in each group (rat No.: control group was 13-16; experimental group was 9-12), and orally administrated a single dose at 3 mg/kg of either compound: (a) the undeuterated N-(4-chloro-3-(trifluoromethyl)phenyl)-N′-(4-(2-(N-methyl-aminoformyl)-4-pyridyloxy)phenyl)urea (control compound CM4306) or (b) N-(4-chloro-3-(trifluoromethyl)phenyl)-N′-(4-(2-(N-(methyl-d3)-aminoformyl)-4-pyridyloxy)phenyl)urea (Compound CM4307 of the invention) prepared in Example 1. The pharmacokinetics differences were compared.
The rats were fed with the standard feed, given water and chlordiazepoxide. Chlordiazepoxide was stopped at the last night before experiment, and given again two hours after the administration of the compound. The rats were fasted for 16 hours before the test. The compound was dissolved in 30% PEG400. The time for collecting orbital blood was 0.083, 0.25, 0.5, 1, 2, 4, 6, 8 and 24 hours after administrating the compounds.
The rats were anaesthetized briefly by inhaling ether. A 300 μL orbital blood sample was collected into the tubes containing a 30 μl 1% heparin saline solution. The tubes were dried overnight at 60° C. before being used. After the blood samples were sequentially collected, the rats were anaesthetized by ether and sacrificed.
After the blood samples were collected, the tubes were gently reversed at least five times immediately to mix the contents sufficiently, and placed on the ice. The blood samples were centrifuged at 4° C. at 5000 rpm for 5 minutes to separate the serum and red blood cells. 100 μL serum was removed to a clean plastic centrifugal tube by pipettor, and the name of the compound and time point were labeled on the tube. Serum was stored at −80° C. before LC-MS analysis.

[2] = test system: Human Hepatocellular Carcinoma SMMC-7721; test: Inhibition of tumor growth of SMMC-7721 in nude mice xenograft model; type: in vivo, Balb/c nu/nu nude mice; conditions: 100 mg/kg po qd × 2 weeks
Experimental: 70 Balb/c nu/nu nude mice, 6 weeks old, female, were bought from Shanghai Experimental Animal Resource Center (Shanghai B&K Universal Group Limited).
SMMC-7721 cells were commercially available from Shanghai Institutes for Biological Science, CAS (Shanghai, China).
The establishment of tumor nude mice xenograft model: SMMC-7721 cells in logarithmic growth period were cultured. After cell number was counted, the cells were suspended in 1×PBS, and the number of the cell in suspension was adjusted to 1.5×10^7/ml. The tumor cells were inoculated under the skin of right armpit of nude mice with a 1 ml syringe, 3×10^6/0.2 ml/mice. 70 nude mice were inoculated in total.
When the tumor size reached 30-130 mm^3, 58 mice were divided randomly into different groups. […]
Animal body weight and tumor size were tested twice a week during the experiment. Clinical symptoms were recorded every day. At the end of the administration, the tumor size was recorded by taking pictures. […]
The formula for calculating the tumor volume (TV) is: TV=a×b^2/2, wherein a, b independently represent the length and the breadth of the tumor. The formula for calculating the relative tumor volume (RTV) is: RTV=Vt/V0, wherein V0 is the tumor volume at the beginning of the administration, and Vt is the tumor […] when measured. […]

CL/F [1] [mL/min/kg] | AUC(0-inf) [1] [ng·h/mL] | half-life [1] [h] | Structure (SMILES) | increase of relative value of tumor inhibition compared with CM4306 (32.2%/19.6%−1) [2]
6.83 | 7330 ± 336 | 8.6 ± 1.4 | CNC(=O)c1cc(Oc2ccc(NC(=O)Nc3ccc(Cl)c(C(F)(F)F)c3)cc2)ccn1 [CM4306, N-(4-chloro-3-(trifluoromethyl)phenyl)-N′-(4-(2-(N-methylaminoformyl)-4-pyridyloxy)phenyl)urea, reference compound] | 
4.58 | 11300 ± 2470 | 11.3 ± 2.1 | [2H]C([2H])([2H])NC(=O)c1cc(Oc2ccc(NC(=O)Nc3ccc(Cl)c(C(F)(F)F)c3)cc2)ccn1 [CM4307, N-(4-chloro-3-(trifluoromethyl)phenyl)-N′-(4-(2-(N-(methyl-d3)aminoformyl)-4-pyridyloxy)phenyl)urea] | about 60%
